# Test results: US20240409585A1, “MACROCYCLIC IMMUNOMODULATORS” (priority 2021, published 2024)
# Bridge positions count the residues as written; N and C are the ends. Square brackets hold non-standard residues; d marks the D form. Peptide text beside a SMILES is read from it. * marks the point of attachment. ξ: configuration not given here. Phe(4-CONH2) = NC(=O)c1ccc(C[C@H](N)C(=O)O)cc1; Phe(4-COOH) = N[C@@H](Cc1ccc(C(=O)O)cc1)C(=O)O; Bip = N[C@@H](Cc1ccc(-c2ccccc2)cc1)C(=O)O; Phe(3-Cl) = N[C@@H](Cc1cccc(Cl)c1)C(=O)O; Phe(3-Me) = Cc1cccc(C[C@H](N)C(=O)O)c1; hTyr = N[C@@H](CCc1ccc(O)cc1)C(=O)O; Val(3-OH) = CC(C)(O)[C@H](N)C(=O)O; 3Pal = N[C@@H](Cc1cccnc1)C(=O)O; 4Pal = N[C@@H](Cc1ccncc1)C(=O)O; Cha = N[C@@H](CC1CCCCC1)C(=O)O; Cit = NC(=O)NCCC[C@H](N)C(=O)O; Ile(3ξ) = CCC(C)[C@H](N)C(=O)O; Thr(3ξ) = CC(O)[C@H](N)C(=O)O; NMeAbu = CC[C@H](NC)C(=O)O; ξCha = NC(CC1CCCCC1)C(=O)O; Carboxymethyl = O=C(O)C*; NMeA = CN[C@@H](C)C(=O)O; Orn = NCCC[C@H](N)C(=O)O; Dab = NCC[C@H](N)C(=O)O; Ac3c = NC1(C(=O)O)CC1
# Molecular target: T1, PE-labeled human PD-L1-Ig binding to Jurkat cell line over-expressing human PD-1 (Jurkat-PD-1) (Homo sapiens, UniProt Q15116)
# T1 construct: expressed in transfected cells; host or cells: Jurkat
# Experiment: Jurkat-PD-1 Cell Binding High-Content Screening Assay (CBA): Method 1
# Conditions: Jurkat-hPD-1 cells, PE-labeled PD-L1-Ig 20 nM final; read-out: Jurkat HPDL1 PD1 IC50 (uM) (Method 1)
# T1 sequence (Q15116 25-288): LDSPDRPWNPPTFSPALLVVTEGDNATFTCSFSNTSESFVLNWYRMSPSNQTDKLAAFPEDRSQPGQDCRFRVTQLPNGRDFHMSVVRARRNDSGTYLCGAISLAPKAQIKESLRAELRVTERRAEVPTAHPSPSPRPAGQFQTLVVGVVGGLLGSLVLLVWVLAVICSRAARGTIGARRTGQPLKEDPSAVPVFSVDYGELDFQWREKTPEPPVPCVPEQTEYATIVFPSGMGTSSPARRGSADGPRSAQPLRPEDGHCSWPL
row,SMILES,IC50 [µM]
1,Cc1cccc(C[C@@H]2NC(=O)[C@H](CC(=O)O)NC(=O)[C@H](Cc3ccc(OCC(=O)O)cc3)NC(=O)[C@H]([C@@H](C)O)NC(=O)CSC[C@@H](C(=O)NC3(C(N)=O)CC3)NC(=O)[C@H](CO)NC(=O)[C@H](C(C)C)NC(=O)[C@H](CC3CCCCC3)NC(=O)[C@H](CCN)NC(=O)[C@@H](CC(C)C)NC(=O)[C@H](C)N(C)C(=O)[C@H](Cc3ccc(OCC(=O)O)cc3)NC(=O)[C@H](Cc3ccc(-c4ccccc4)cc3)NC(=O)[C@H](Cc3ccc(OCC(=O)O)cc3)NC2=O)c1 [Compound 1862] ({CH2CO}-TY(Carboxymethyl)D[Phe(3-Me)]Y(Carboxymethyl)[Bip]Y(Carboxymethyl)[NMeA][dL][Dab][Cha]VSC[Ac3c]-NH2; thioether N-14),0.04
2,CCC(C)[C@@H]1NC(=O)[C@H](Cc2ccc(-c3ccccc3)cc2)NC(=O)[C@H](CC(C)C)NC(=O)[C@H](Cc2c[nH]c3ccccc23)NC(=O)[C@H](CC(=O)O)NC(=O)[C@H](Cc2ccc(C(=O)O)cc2)NC(=O)[C@H](Cc2ccc(OCC(=O)O)cc2)NC(=O)CSC[C@@H](C(=O)N[C@@H](CO)C(N)=O)NC(=O)[C@H](CCC(=O)O)NC(=O)[C@H](C(C)C)NC(=O)[C@H](CC2CCCCC2)NC(=O)[C@H](CCN)NC(=O)[C@@H](CC(C)C)NC(=O)[C@H](C)N(C)C1=O (stereo partly drawn) [Compound 1930] ({CH2CO}-Y(Carboxymethyl)[Phe(4-COOH)]DWL[Bip][Ile(3ξ)][NMeA][dL][Dab][Cha]VECS-NH2; thioether N-14),0.02
3,CC(C)C[C@@H]1NC(=O)[C@H](CCN)NC(=O)[C@@H](CC(C)C)NC(=O)[C@H](C)N(C)C(=O)[C@H](CCCNC(N)=O)NC(=O)[C@H](Cc2ccc(-c3ccccc3)cc2)NC(=O)[C@H](C(C)C)NC(=O)[C@H](Cc2c[nH]c3ccccc23)NC(=O)[C@H](CC(=O)O)NC(=O)[C@H](Cc2ccc(O)cc2)NC(=O)[C@H](CCCCN)NC(=O)CSC[C@@H](C(=O)N[C@@H](C)C(N)=O)NC(=O)[C@H]([C@@H](C)O)NC(=O)[C@H](C(C)C)NC1=O [Compound 1348] ({CH2CO}-KYDWV[Bip][Cit][NMeA][dL][Dab]LVTCA-NH2; thioether N-14),0.05
4,CC(C)C[C@@H]1NC(=O)[C@H](CCCNC(=N)N)NC(=O)[C@@H](CC(C)C)NC(=O)[C@H](C)N(C)C(=O)[C@H](CCCNC(=N)N)NC(=O)[C@H](Cc2ccc(-c3ccccc3)cc2)NC(=O)[C@H](C(C)C)NC(=O)[C@H](Cc2cccc(Cl)c2)NC(=O)[C@H](CC(=O)O)NC(=O)[C@H](Cc2ccc(O)cc2)NC(=O)[C@H](CC(N)=O)NC(=O)CSC[C@@H](C(=O)N[C@@H](C)C(N)=O)NC(=O)[C@H]([C@@H](C)O)NC(=O)[C@H](C(C)C)NC1=O [Compound 1127] ({CH2CO}-NYD[Phe(3-Cl)]V[Bip]R[NMeA][dL]RLVTCA-NH2; thioether N-14),0.09
5,CCC(C)[C@@H]1NC(=O)[C@H](Cc2ccc(-c3ccccc3)cc2)NC(=O)[C@H](C(C)C)NC(=O)[C@H](Cc2c[nH]c3ccccc23)NC(=O)[C@H](CC(N)=O)NC(=O)[C@H](Cc2ccc(OCC(=O)O)cc2)NC(=O)[C@H](Cc2ccncc2)NC(=O)CSC[C@@H](C(=O)N[C@@H](C)C(=O)N[C@@H](CCCCN)C(N)=O)NC(=O)[C@H](C(C)O)NC(=O)[C@H](C(C)C)NC(=O)C(CC2CCCCC2)NC(=O)[C@H](CC(N)=O)NC(=O)[C@@H](CC(C)C)NC(=O)[C@H](C)N(C)C1=O (stereo partly drawn) [Compound 2018] ({CH2CO}-[4Pal]Y(Carboxymethyl)NWV[Bip][Ile(3ξ)][NMeA][dL]N[ξCha]V[Thr(3ξ)]CAK-NH2; thioether N-14),0.12
6,CC[C@H]1C(=O)N[C@H](CC(C)C)C(=O)N[C@@H](CCN)C(=O)N[C@@H](CC2CCCCC2)C(=O)N[C@@H](C(C)(C)O)C(=O)N[C@@H](CO)C(=O)N[C@H](C(=O)N[C@@H](CCN)C(N)=O)CSCC(=O)N[C@@H](Cc2ccncc2)C(=O)N[C@@H](Cc2ccc(OCC(=O)O)cc2)C(=O)N[C@@H](CC(=O)O)C(=O)N[C@@H](Cc2cccc(C)c2)C(=O)N[C@@H](Cc2ccc(OCC(=O)O)cc2)C(=O)N[C@@H](Cc2ccc(-c3ccccc3)cc2)C(=O)N[C@@H](Cc2ccc(OCC(=O)O)cc2)C(=O)N1C [Compound 1837] ({CH2CO}-[4Pal]Y(Carboxymethyl)D[Phe(3-Me)]Y(Carboxymethyl)[Bip]Y(Carboxymethyl)[NMeAbu][dL][Dab][Cha][Val(3-OH)]SC[Dab]-NH2; thioether N-14),0.47
7,Cc1cccc(C[C@@H]2NC(=O)[C@H](CC(=O)O)NC(=O)[C@H](Cc3ccc(OCC(=O)O)cc3)NC(=O)[C@H](C(C)O)NC(=O)CSC[C@@H](C(=O)N[C@@H](CO)C(N)=O)NC(=O)[C@H](CO)NC(=O)[C@H](C(C)(C)O)NC(=O)[C@H](CC3CCCCC3)NC(=O)[C@H](CCN)NC(=O)[C@@H](CC(C)C)NC(=O)[C@H](C)N(C)C(=O)[C@H](Cc3ccc(C(=O)O)cc3)NC(=O)[C@H](Cc3ccc(-c4ccccc4)cc3)NC(=O)[C@H](Cc3ccc(C(N)=O)cc3)NC2=O)c1 (stereo partly drawn) [Compound 2181] ({CH2CO}-[Thr(3ξ)]Y(Carboxymethyl)D[Phe(3-Me)][Phe(4-CONH2)][Bip][Phe(4-COOH)][NMeA][dL][Dab][Cha][Val(3-OH)]SCS-NH2; thioether N-14),0.05
8,CC(C)C[C@@H]1NC(=O)[C@H](CCCNC(=N)N)NC(=O)[C@@H](Cc2ccccc2)NC(=O)[C@H](C)N(C)C(=O)[C@H](CCCNC(=N)N)NC(=O)[C@H](Cc2ccc(-c3ccccc3)cc2)NC(=O)[C@H](C(C)C)NC(=O)[C@H](Cc2c[nH]c3ccccc23)NC(=O)[C@H](CC(=O)O)NC(=O)[C@H](Cc2ccc(O)cc2)NC(=O)[C@H](Cc2cccnc2)NC(=O)CSC[C@@H](C(=O)N[C@@H](C)C(N)=O)NC(=O)[C@H]([C@@H](C)O)NC(=O)[C@H](C(C)C)NC1=O [Compound 1161] ({CH2CO}-[3Pal]YDWV[Bip]R[NMeA][dF]RLVTCA-NH2; thioether N-14),0.11
9,CC(C)C[C@@H]1NC(=O)[C@H](CCN)NC(=O)[C@@H](CC(C)C)NC(=O)[C@H](C)N(C)C(=O)[C@H](CCCNC(=N)N)NC(=O)[C@H](Cc2ccc(-c3ccccc3)cc2)NC(=O)[C@H](C(C)C)NC(=O)[C@H](Cc2c[nH]c3ccccc23)NC(=O)[C@H](CC(=O)O)NC(=O)[C@H](CCc2ccc(O)cc2)NC(=O)[C@H](CC(N)=O)NC(=O)CSC[C@@H](C(=O)N[C@@H](C)C(N)=O)NC(=O)[C@H]([C@@H](C)O)NC(=O)[C@H](C(C)C)NC1=O [Compound 1354] ({CH2CO}-N[hTyr]DWV[Bip]R[NMeA][dL][Dab]LVTCA-NH2; thioether N-14),0.02
10,Cc1cccc(C[C@@H]2NC(=O)[C@H](CC(=O)O)NC(=O)[C@H](Cc3ccc(OCC(=O)O)cc3)NC(=O)[C@H](Cc3ccncc3)NC(=O)CSC[C@@H](C(N)=O)NC(=O)[C@H](CCCN)NC(=O)[C@H](C(C)C)NC(=O)[C@H](CC3CCCCC3)NC(=O)[C@H](CCN)NC(=O)[C@@H](CC(C)C)NC(=O)[C@H](C)N(C)C(=O)[C@H](Cc3ccc(OCC(=O)O)cc3)NC(=O)[C@H](Cc3ccc(-c4ccccc4)cc3)NC(=O)[C@H](Cc3ccc(OCC(=O)O)cc3)NC2=O)c1 [Compound 1662] ({CH2CO}-[4Pal]Y(Carboxymethyl)D[Phe(3-Me)]Y(Carboxymethyl)[Bip]Y(Carboxymethyl)[NMeA][dL][Dab][Cha]V[Orn]C-NH2; thioether N-14),0.01
